Measurements as given in US8980911B2, “Heterocyclic compounds as protein kinase inhibitors” (Daiichi Sankyo Company, Limited, priority 2011, dated 2015).

How the values were obtained:
Assay type in all cases: biochemical
JAK3 = target: T1, JAK3 (Homo sapiens, UniProt P52333); experiment: In vitro enzyme assay (cell-free HTRF kinase assay), JAK3; conditions: catalytic domain, His-tag; ATP 3 μM, SRCtide 100 nM, reaction 30 min
T1 construct: All enzymes only contain the catalytic domain; His (N); purchased Carna Bioscience, Inc; host or cells: baculovirus expression system
T1 sequence (P52333 822-1111 limits assumed): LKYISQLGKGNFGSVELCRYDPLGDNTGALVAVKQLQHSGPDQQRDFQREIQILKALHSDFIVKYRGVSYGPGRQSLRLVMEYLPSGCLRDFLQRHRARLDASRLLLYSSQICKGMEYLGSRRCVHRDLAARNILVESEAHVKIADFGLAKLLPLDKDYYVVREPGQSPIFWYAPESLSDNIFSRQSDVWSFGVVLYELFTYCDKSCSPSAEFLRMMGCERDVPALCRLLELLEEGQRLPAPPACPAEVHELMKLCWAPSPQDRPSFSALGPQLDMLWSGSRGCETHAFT
Protocol: (§1) Kinase buffer [50 mM HEPES (pH 7.5), 1 mM EGTA, 10 mM MgCl2, 2 mM DTT and 0.01% Tween-20) was prepared and dilutions of a compound of formula (I) and other reagents were subsequently made in it. Two times concentrated compound of formula (I) solution: A compound of formula (I) was diluted to 100-fold final concentration in DMSO, followed by 50-fold dilution with Kinase buffer (1% DMSO final concentration). Four times concentrated Substrate/ATP mix solution: Biotin-SRCtide and ATP were diluted to 4-fold final concentration in Kinase buffer. Biotin-SRCtide solution (purchased from Anaspec) was mixed with ATP solution (1:1). Four times concentrated Enzyme solution: JAK1 or JAK2 or JAK3 or TYK2 enzyme [Human baculo virus expressed JAK1, JAK2, JAK3 and TYK2 were purchased from Carna Bioscience, Inc. All enzymes only contain the catalytic domain. JAK1 (aa 850-1154) and TYK2 (aa 871-1187) are expressed with an N-terminally fused GST-tag, and JAK2 and JAK3 with an N-terminally fused His-tag] was diluted to 4-fold final concentration in Kinase buffer and always kept on ice. Detection buffer: LANCE detection buffer (10 times concentrated) was diluted 10-fold in H2O. Four times concentrated stop solution: EDTA was diluted to a concentration of 40 mM in detection buffer. Four times concentrated ULight/Eu-antibody (from Perkin Elmer) mix solution: ULight-Streptavidin was diluted to a concentration of 100 nM (25 ng/mL final concentrations) and Eu-anti-phospho-Tyrosine (PT66) (from Perkin Elmer) was diluted to a concentration of 8 nM (2 ng/mL final concentration) in detection buffer.
(§2) Cell-free in vitro kinase assay was performed in 384 well plates. Two times concentrated compound solution (5 μL) was pipetted into a HTS 384SV Small Volume Plate. Four times concentrated Substrate/ATP mix (2.5 μL) solution was added along with 4 times concentrated Enzyme solution (2.5 μL). Plate was covered with TopSeal-A and incubated at room temperature for indicated time (Table 3). Four times concentrated Stop solution (5 μL, 10 mM final concentration) was added and incubated for 5 minutes at room temperature. Four times concentrated ULight/Eu-antibody mix solution (5 μL) was added and again plate was covered with TopSeal and incubated overnight at 4° C. TopSeal was removed and HTRF signal was measured at 615 nm and […] (excitation at 320 or 340 nm) on Tecan M1000 Multi mode plate reader. Ratio (665 nm/615 nm)×10^4 was calculated and IC50 values were deduced from Graph-pad prism 4.2.

JAK1 = target: T2, JAK1 (Homo sapiens, UniProt P23458); experiment: In vitro enzyme assay (cell-free HTRF kinase assay), JAK1; conditions: catalytic domain aa 850-1154, GST-tag; ATP 60 μM, SRCtide 400 nM, reaction 120 min
T2 construct: JAK1 (aa 850-1154) and TYK2 (aa 871-1187) are expressed with an N-terminally fused GST-tag; GST (N); purchased Carna Bioscience, Inc; host or cells: baculovirus expression system
T2 sequence (P23458 850-1154): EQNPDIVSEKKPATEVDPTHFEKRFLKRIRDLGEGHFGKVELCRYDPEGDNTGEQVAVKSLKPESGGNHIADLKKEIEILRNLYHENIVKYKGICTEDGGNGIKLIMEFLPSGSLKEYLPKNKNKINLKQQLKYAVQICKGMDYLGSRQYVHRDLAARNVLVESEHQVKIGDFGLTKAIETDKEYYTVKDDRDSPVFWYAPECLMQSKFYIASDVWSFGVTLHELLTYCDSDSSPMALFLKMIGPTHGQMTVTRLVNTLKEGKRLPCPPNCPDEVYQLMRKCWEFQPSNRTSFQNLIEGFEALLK
Protocol: as §1, §2

JAK2 = target: T3, JAK2 (Homo sapiens, UniProt O60674); experiment: In vitro enzyme assay (cell-free HTRF kinase assay), JAK2; conditions: catalytic domain, His-tag; ATP 10 μM, SRCtide 25 nM, reaction 30 min
T3 construct: All enzymes only contain the catalytic domain; His (N); purchased Carna Bioscience, Inc; host or cells: baculovirus expression system
T3 sequence (O60674 849-1124 limits assumed): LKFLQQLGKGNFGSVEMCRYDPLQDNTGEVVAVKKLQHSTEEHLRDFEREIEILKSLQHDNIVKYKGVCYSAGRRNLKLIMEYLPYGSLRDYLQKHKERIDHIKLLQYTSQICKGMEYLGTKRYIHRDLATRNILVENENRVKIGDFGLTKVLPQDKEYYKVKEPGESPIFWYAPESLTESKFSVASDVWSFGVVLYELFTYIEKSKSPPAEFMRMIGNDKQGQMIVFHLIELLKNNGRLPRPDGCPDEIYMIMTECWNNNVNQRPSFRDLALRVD
Protocol: as §1, §2

Row | Structure (SMILES) | IC50 (JAK3) [nM] | IC50 (JAK1) [nM] | IC50 (JAK2) [nM]
1 | CC(=O)Nc1nccc2c(C(=O)c3c(Cl)cc(C(=O)NCCN4CCCC4)cc3Cl)c[nH]c12 [Compound No. 44, 4-{[7-(Acetylamino)-1H-pyrrolo[2,3-c]pyridin-3-yl]carbonyl}-3,5-dichloro-N-[2-(pyrrolidin-1-yl)ethyl]benzamide] | < 1000 | < 1000 | < 1000
2 | O=C(c1c(Cl)cc(-c2cncnc2)cc1Cl)c1c[nH]c2c(NC(=O)C3CC3)nccc12 [Compound No. 47, N-{3-[2,6-Dichloro-4-(pyrimidin-5-yl)benzoyl]-1H-pyrrolo[2,3-c]pyridin-7-yl}cyclopropanecarboxamide] | < 100 | < 1000 | < 100
3 | N#Cc1cc(F)c(C(=O)c2c[nH]c3c(NC(=O)C4CC4)nccc23)c(F)c1 [Compound No. 51, N-[3-(4-Cyano-2,6-difluorobenzoyl)-1H-pyrrolo[2,3-c]pyridin-7-yl]cyclopropanecarboxamide] | < 50 | < 500 | < 100
4 | O=C(NC1CC1)c1cc(Cl)c(C(=O)c2c[nH]c3c(NC(=O)C4CC4)nccc23)c(Cl)c1 [Compound No. 54, 3,5-Dichloro-N-cyclopropyl-4-({7-[(cyclopropylcarbonyl)amino]-1H-pyrrolo[2,3-c]pyridin-3-yl}carbonyl)benzamide] | < 500 | < 500 | < 500
5 | O=C(NCC1CC1)c1cc(Cl)c(C(=O)c2c[nH]c3c(NC(=O)C4CC4)nccc23)c(Cl)c1 [Compound No. 55, 3,5-Dichloro-4-({7-[(cyclopropylcarbonyl)amino]-1H-pyrrolo[2,3-c]pyridin-3-yl}carbonyl)-N-(cyclopropylmethyl)benzamide] | < 500 | < 500 | < 500
6 | CCOCCCNC(=O)c1cc(Cl)c(C(=O)c2c[nH]c3c(NC(=O)C4CC4)nccc23)c(Cl)c1 [Compound No. 56, 3,5-Dichloro-4-({7-[(cyclopropylcarbonyl)amino]-1H-pyrrolo[2,3-c]pyridin-3-yl}carbonyl)-N-(3-ethoxypropyl)benzamide] | < 500 | < 500 | < 500
7 | O=C(c1c(Cl)cc(CO)cc1Cl)c1c[nH]c2c(NC(=O)C3CC3)nccc12 [Compound No. 58, N-{3-[2,6-Dichloro-4-(hydroxymethyl)benzoyl]-1H-pyrrolo[2,3-c]pyridin-7-yl}cyclopropanecarboxamide] | < 1000 | < 1000 | < 1000
8 | O=C(NCCF)c1cc(F)c(C(=O)c2c[nH]c3c(NC(=O)C4CC4)nccc23)c(F)c1 [Compound No. 59, 4-({7-[(Cyclopropylcarbonyl)amino]-1H-pyrrolo[2,3-c]pyridin-3-yl}carbonyl)-3,5-difluoro-N-(2-fluoroethyl)benzamide] | < 500 | < 500 | < 500
9 | CCNC(=O)c1cc(F)c(C(=O)c2c[nH]c3c(NC(=O)C4CC4)nccc23)c(F)c1 [Compound No. 60, 4-({7-[(Cyclopropylcarbonyl)amino]-1H-pyrrolo[2,3-c]pyridin-3-yl}carbonyl)-N-ethyl-3,5-difluorobenzamide] | < 500 | < 500 | < 1000
10 | CNC(=O)c1cc(F)c(C(=O)c2c[nH]c3c(NC(=O)C4CC4)nccc23)c(F)c1 [Compound No. 61, 4-({7-[(Cyclopropylcarbonyl)amino]-1H-pyrrolo[2,3-c]pyridin-3-yl}carbonyl)-3,5-difluoro-N-methylbenzamide] | < 500 | < 1000 | < 500
11 | O=C(NCCCO)c1cc(F)c(C(=O)c2c[nH]c3c(NC(=O)C4CC4)nccc23)c(F)c1 [Compound No. 62, 4-({7-[(Cyclopropylcarbonyl)amino]-1H-pyrrolo[2,3-c]pyridin-3-yl}carbonyl)-3,5-difluoro-N-(3-hydroxypropyl)benzamide] | < 500 | < 1000 | < 500
